What was measured:
[1] = indicated by FDG PET studies; cited from earlier work
[2] = tested on: primary neurons; assay: High throughput RNA sequencing of primary neurons; type: cell-based, mouse
Description: Primary cortical neurons were treated with 2-DG (1 mM and 10 mM) for 6 h from three independent cultures and RNA was isolated from each sample using a NucleoSpin RNA II Kit (Clontech, Catalog number-740955-250). For each RNA sample, RNA quality was initially quantified using the RNA Integrity Number (RIN) on an Agilent Bioanalyzer (Agilent Genomics). RNA-sequencing was carried out for the RNAs with by the UCLA Neuroscience Genomics Core. In brief, cDNA was generated using Ovation® RNA-Seq System V2 (NuGEN) followed by the library preparation using Illumina's TruSeq Stranded RNA (100 ng)+RiboZero Gold. The libraries were pooled and sequenced to generate 75 bp paired end reads on HiSeqTM4000 system (Illumina). Minimum of […] reads were obtained. Reads were aligned to the mouse mm10 reference genome using the STAR (ver 2.4.0) spliced read aligner (Dobin et al., 2013). Uniquely aligned read percentage was […](SD). Various quality matrix was generated to use high quality data for the analysis. Read counts for mouse […] genes were generated by HT-seq 0.6.1 (Anders et al., 2015). Genes with at least 5 read events at least half of samples were permitted into the dataset, for a total of 15,787 genes. Raw counts were normalized by trimmed mean of M values (TMM). Differentially expressed genes (DEG) were analyzed using an EdgeR bioconductor R (Robinson et al., 2010). False discovery rate less than 0.1 is used to define differentially expressed genes. Gene Set Enrichment Analysis (GSEA) was performed with gene lists sorted by directional p-Values from differential expression analysis. Raw and processed RNAseq data are deposited to Gene Expression Omnibus (GEO #).

[3] = tested on: Creb1, Bdnf, Rbbp4; assay: Plasticity gene expression by quantitative real time PCR in mouse primary neurons; type: cell-based
Description: Primary immature neuronal cultures were prepared from cerebral cortex of E14 embryos (day 14 of gestation) of CD1 mice under sterile conditions. Dissected cortices were incubated at 37° C. for 20 min in EBSS solution containing papain, L-cystine and EDTA, which was activated at 37 °C for 30 min and then was filtered through […] (Millipore, catalog number—SCGP00525). Cortices were then mechanically dissociated by trituration with glass pipettes. The rDNase was added in dissociated cells followed by incubation of these dissociated cells at 37 °C for 3 min. Thereafter, these cells were centrifuged at 2800 rpm for 5 min. Then supernatant was discarded, and cell were resuspended gently in a 5 ml mixture of EBSS and 10/10 solution (4:1 ratio). Then 5 ml of 10/10 solution was added gently on top and these resuspended cells were centrifuged at 2800 rpm for 10 min. Supernatant was again discarded and cells were resuspended in 10 ml MEM, Glutamax supplement (Thermo Fisher Scientific, Catalog number—41090036) containing 10% heat inactivated fetal bovine serum (Thermo Fisher Scientific, Catalog number—16140071), 5% heat inactivated horse serum (Thermo Fisher Scientific, Catalog number—26050088), and 1% penicillin/streptomycin (Thermo Fisher Scientific, Catalog number—15140122). Thereafter, resuspended cells were filtered through 70-micron cell strainer (Thomas Scientific, catalog number—4620F02) followed by their counting through Hemocytometer. Cells were, finally, plated at the density of 1 million cells/ml onto poly-D-Lysine (PDL; Sigma Aldrich, catalog number—P6407-10X5MG) coated pates and placed in CO2-buffered incubators at 37° C.
Total RNA was extracted from primary cortical neurons using NucleoSpin RNA II Kit (Clontech, Catalog number—740955-250). Thereafter, using the Taqman RNA-to-Ct, one step kit (Thermo Fisher Scientific, catalog number—4392938) and following the manufacturer's instructions, […] from each sample was mixed with the Taqman® Gene Expression Master Mix and Taqman® Gene Expression Assays for Creb1 (Catalog number—Mm00501607_m1), Bdnf (Catalog number—Mm04230607_s1), Rbbp4 (Catalog number—Mm00771401_g1), Bip (Catalog number—Mm00517691_m1), Trib3 (Catalog number—Mm00454879_m1), and Chac1 (Catalog number—Mm00509926_m1) with FAM labelled probe and Actin with VIC labelled probe all from Thermo Fisher Scientific on an Applied Biosystems 7500 Fast Real Time PCR System. For assessing gene expression of various specific Bdnf exons in mouse primary neurons, two step qPCR was used. Total RNA from primary cortical neurons was extracted using NucleoSpin RNA II Kit (Clontech, Catalog number—740955-250) and a total of 1.5 μg RNA was used to synthesize cDNA with the SuperScript® III First-Strand Synthesis System (Thermo Fisher Scientific, Catalog number—18080051). Quantitative RT-PCR was then performed using SYBR green (Thermo Fisher Scientific, Catalog number—4309155) on an Applied Biosystems 7500 Fast Real Time PCR System. Quantitative levels for all genes were normalized to the housekeeping gene GAPDH and expressed relative to the relevant control samples as fold change. The sequences of primers used in this part of the study were as follows: Bdnf I forward: […] (SEQ ID NO:9) and Bdnf I reverse: […] (SEQ ID NO:10); Bdnf II forward: […] (SEQ ID NO:11) and Bdnf II reverse: […] (SEQ ID NO:12); Bdnf IV forward #2: […] (SEQ ID NO:13) and Bdnf IV reverse #2: […] (SEQ ID NO:14); Bdnf VI forward: […] (SEQ ID NO:15) and Bdnf VI reverse: […] (SEQ ID NO:16); Bdnf VII forward: […] (SEQ ID NO:17) and Bdnf VII reverse: […] (SEQ ID NO:18) Bdnf IX forward: […] (SEQ ID NO:19) and Bdnf IX reverse: […] (SEQ ID NO:20); Gapdh forward #2: […] (SEQ ID NO:21) and Gapdh reverse #2: […] (SEQ ID NO: 22).

[4] = tested on: Trib3 promoter, Bdnf promoter; assay: Promoter reporter luciferase assay in primary neurons; type: cell-based, mouse; settings: 2-DG 9 h treatment, reporter in mouse primary neurons
Description: Primary neurons were co-transfected with various plasmids such as different Bdnf exon promoters each tagged with firefly luciferase or Trib3 promoter tagged with firefly luciferase and pTK-renilla luciferase plasmid at 1:10 ratio using Lipofectamine 2000 (Thermo Fisher Scientific, catalog number—11668019) according to the manufacturer's instructions to control for transfection efficiency. […] Thereafter, luciferase activity was measured using dual luciferase assay kit (Promega) and bioluminometer (MDS Analytical Technologies). Final luciferase activity was calculated by normalizing firefly luciferase activity with Renilla luciferase activity and then the valued were converted to fold change with respect to control.

Structure (SMILES): OC[C@H]1OC(O)C[C@@H](O)[C@@H]1O (stereo partly drawn) [2-DG, (4R,5S,6R)-6-(hydroxymethyl)oxane-2,4,5-triol]
- crossing of the blood brain barrier [1]: can easily cross the blood brain barrier
- genes related to the unfolded protein response ([2]; 1 mM and 10 mM, 6 h): dose dependent increase
- cellular component enrichment analysis ([2]; 1 mM or 10 mM, 6 h): significant enrichment of genes related to endoplasmic reticulum
- gene set enrichment analysis: gene signature related to unfolded protein response (UPR) ([2]; 1 mM or 10 mM, 6 h): maximal upregulation
- plasticity gene program in RNA sequencing ([2]; 1 mM or 10 mM, 6 h): upregulation of a broad plasticity gene program
- mitochondrial gene signature in RNA sequencing ([2]; 2-DG treatment, primary neurons): didn't show any significant change
- endogenous mRNA levels of six Bdnf transcript variants ([3]; 10 mM, 6 h, mouse primary neurons): all transcript variants were upregulated
- Creb1 and Bdnf gene expression with AMPK phosphorylation knocked down ([3]; adenoviral dominant negative AMPK, increasing concentrations of 2-DG): did not block 2-DG led increase in Creb1 and Bdnf gene expression
- Bdnf gene expression with dominant negative ATF4 ([3]; adenoviral dominant negative ATF4, 2-DG 6 h treatment): ATF4 knockdown blocked 2-DG led increase in Bdnf gene expression
- plasticity gene program in depolarized primary neurons ([3]; increasing concentration, co-treated with 25 mM KCl, 6 h): dose dependent increase in plasticity gene program
- changes in Bdnf gene expression ([3]; increasing concentrations 1-15 mM, primary cortical neurons): does dependent
- expression of plasticity genes Creb1, Bdnf and Rbbp4 (mRNA) ([3]; increasing concentrations, 6 h, mouse primary neurons): dose-dependent increase
- Trib3 promoter activity with or without mutation in ATF4 binding site [4]: ATF4 binding site mutation completely blocked the 2-DG led induction of Trib3 promoter activity

Reference: patent US20240197760A1, “ACTIVATORS OF INTEGRATED STRESS RESPONSE PATHWAY FOR PROTECTION AGAINST FERROPTOSIS” (Burke Neurological Institute, priority 2021, published 2024)
